# Source: patent publication US11254668B2, “Pyrazolo[1,5-A]pyrazin-4-yl and related derivatives” (Pfizer Inc., priority 2017, dated 2022)
# Like-named read-outs stand apart in the source and are kept apart here.
# Legend:
# Type in all cases: biochemical
# TYK2 = TYK2 (Homo sapiens (Human), UniProt P29597); assay: JAK Caliper Enzyme Assay at 1 mM ATP, TYK2
# Method in brief: (§1)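 Recombinant human kinase domains phosphorylate a fluorescent synthetic peptide at 1 mM ATP and room temperature, with enzyme level and time tuned to 20–30% conversion before an EDTA stop. Microfluidic mobility-shift separation gives percent product from peak heights. Percent effect against plate controls (DMSO baseline) is plotted versus compound concentration.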
# JAK1 = JAK1 (Homo sapiens (Human), UniProt P23458); assay: JAK Caliper Enzyme Assay at 1 mM ATP, JAK1
# JAK1, sequence (P23458 875-1153): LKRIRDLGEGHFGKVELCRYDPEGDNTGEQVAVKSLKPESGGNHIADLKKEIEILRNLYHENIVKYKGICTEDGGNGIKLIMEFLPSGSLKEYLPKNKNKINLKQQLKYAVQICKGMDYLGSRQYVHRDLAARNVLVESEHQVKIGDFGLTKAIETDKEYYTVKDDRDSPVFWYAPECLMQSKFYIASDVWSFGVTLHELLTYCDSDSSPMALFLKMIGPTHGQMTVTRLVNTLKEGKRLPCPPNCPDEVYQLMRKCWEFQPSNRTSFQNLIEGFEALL
# Method in brief: (§2)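 Recombinant human kinase domains phosphorylated a fluorescent synthetic peptide at room temperature, with enzyme level and time tuned to 20% to 30% conversion; EDTA stop buffer ended reactions. Mobility-shift separation gave percent product from peak heights, normalised to DMSO and positive controls, and IC50s came from concentration–effect curves.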
# JAK2 = JAK2 (Homo sapiens (Human), UniProt O60674); assay: JAK Caliper Enzyme Assay at 1 mM ATP, JAK2
# JAK2, sequence (O60674 849-1124): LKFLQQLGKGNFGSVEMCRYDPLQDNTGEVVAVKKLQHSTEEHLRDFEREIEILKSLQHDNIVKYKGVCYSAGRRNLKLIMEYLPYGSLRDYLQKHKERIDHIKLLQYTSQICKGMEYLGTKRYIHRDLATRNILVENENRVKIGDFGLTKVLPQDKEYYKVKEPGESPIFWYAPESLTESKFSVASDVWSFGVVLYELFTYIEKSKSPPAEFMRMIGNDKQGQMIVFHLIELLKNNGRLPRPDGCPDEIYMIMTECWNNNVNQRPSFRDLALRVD
# Method in brief: as §1
# JAK3 = JAK3 (Homo sapiens (Human), UniProt P52333); assay: JAK Caliper Enzyme Assay at 1 mM ATP, JAK3
# JAK3, sequence (P52333 822-1111): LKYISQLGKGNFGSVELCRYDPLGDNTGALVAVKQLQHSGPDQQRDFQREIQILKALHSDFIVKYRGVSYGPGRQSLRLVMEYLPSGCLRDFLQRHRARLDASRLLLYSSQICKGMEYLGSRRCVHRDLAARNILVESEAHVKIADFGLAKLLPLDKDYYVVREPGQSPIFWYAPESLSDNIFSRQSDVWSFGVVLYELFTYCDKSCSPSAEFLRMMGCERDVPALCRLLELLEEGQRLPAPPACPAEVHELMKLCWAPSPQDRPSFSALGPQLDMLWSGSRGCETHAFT
# Method in brief: as §2
# TYK2, sequence (P29597 897-1176): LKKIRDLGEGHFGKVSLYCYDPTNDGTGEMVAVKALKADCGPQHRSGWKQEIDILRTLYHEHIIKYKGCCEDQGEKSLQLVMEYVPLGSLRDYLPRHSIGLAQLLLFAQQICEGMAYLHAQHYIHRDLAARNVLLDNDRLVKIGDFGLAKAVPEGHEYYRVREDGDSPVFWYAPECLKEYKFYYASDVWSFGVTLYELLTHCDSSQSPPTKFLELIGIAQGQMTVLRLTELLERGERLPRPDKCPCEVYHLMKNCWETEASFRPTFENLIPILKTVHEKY
SMILES,IC50 (TYK2; JAK Caliper enzyme assay) [µM],IC50 (JAK1; JAK Caliper enzyme assay) [µM],IC50 (JAK2; JAK Caliper enzyme assay) [µM],IC50 (JAK3; JAK Caliper enzyme assay) [µM],IC50 (TYK2) [µM],IC50 (JAK1) [µM],IC50 (JAK2) [µM],IC50 (JAK3) [µM]
"Cc1cc(-c2cc(-c3cnn([C@]4(CC#N)C[C@H](C#N)C4)c3)n3ccnc3c2)n[nH]1 [Example 462, cis-3-(cyanomethyl)-3-{4-[7-(5-methyl-1H-pyrazol-3-yl)imidazo[1,2-a]pyridin-5-yl]-1H-pyrazol-1-yl}cyclobutanecarbonitrile]",0.02,0.873,0.188,> 10,–,–,–,–
"N#CC[C@]1(n2ncc(-c3cc(-c4cnc5[nH]ccc5n4)cc4ncccc34)n2)C[C@@H](C#N)C1 [Example 416, cis-3-(cyanomethyl)-3-{4-[7-(5H-pyrrolo[2,3-b]pyrazin-2-yl)quinolin-5-yl]-2H-1,2,3-triazol-2-yl}cyclobutanecarbonitrile]",0.696,3.2,2.3,> 10,–,–,–,–
"N#CCC1(n2ccc(-c3nc(Oc4cccc(N)n4)cc4ncccc34)n2)CC(C#N)C1 (stereo not drawn) [Example 266, trans-3-(3-{7-[(6-aminopyridin-2-yl)oxy]-1,6-naphthyridin-5-yl}-1H-pyrazol-1-yl)-3-(cyanomethyl)cyclobutanecarbonitrile]",–,–,–,–,1.91,> 10,3.32,> 10
"CS(=O)(=O)N1CC(CC#N)(n2ncc(-c3cc(-c4cccc(CO)c4)cc4ncccc34)n2)C1 [Example 429, [3-(4-{7-[3-(hydroxymethyl)phenyl]quinolin-5-yl}-2H-1,2,3-triazol-2-yl)-1-(methylsulfonyl)azetidin-3-yl]acetonitrile]",0.112,4,1.12,> 10,–,–,–,–
"Cn1cc(-c2cc3ncccc3c(-c3ccn(C4(CC#N)CN(CC(F)(F)F)C4)n3)n2)ccc1=O [Example 249, [3-{3-[7-(1-methyl-6-oxo-1,6-dihydropyridin-3-yl)-1,6-naphthyridin-5-yl]-1H-pyrazol-1-yl}-1-(2,2,2-trifluoroethyl)azetidin-3-yl]acetonitrile]",–,–,–,–,0.178,1.08,1.15,> 10
"N#CC[C@]1(n2ccc(-c3nc(-c4cn[nH]c4CO)cc4ncccc34)n2)C[C@H](C#N)C1 [Example 91, trans-3-(cyanomethyl)-3-(3-{7-[5-(hydroxymethyl)-1H-pyrazol-4-yl]-1,6-naphthyridin-5-yl}-1H-pyrazol-1-yl)cyclobutanecarbonitrile]",–,–,–,–,0.034,0.562,0.16,> 10
"Cn1cc(-c2cc3ncccc3c(-n3ccc(C4(CC#N)CN(CC(F)(F)F)C4)n3)n2)cn1 [Example 279, [3-{1-[7-(1-methyl-1H-pyrazol-4-yl)-1,6-naphthyridin-5-yl]-1H-pyrazol-3-yl}-1-(2,2,2-trifluoroethyl)azetidin-3-yl]acetonitrile]",–,–,–,–,0.194,6.34,0.686,> 10

# Second part, the compound after the results:
IC50 (TYK2; JAK Caliper enzyme assay) [µM],IC50 (JAK1; JAK Caliper enzyme assay) [µM],IC50 (JAK2; JAK Caliper enzyme assay) [µM],IC50 (JAK3; JAK Caliper enzyme assay) [µM],IC50 (TYK2) [µM],IC50 (JAK1) [µM],IC50 (JAK2) [µM],IC50 (JAK3) [µM],SMILES
–,–,–,–,0.007,0.035,0.033,1.54,"N#CCC1(n2ccc(-c3nc(-c4cn[nH]c4)cc4ncccc34)n2)CC(C#N)C1 (stereo not drawn) [Example 76, cis-3-(cyanomethyl)-3-{3-[7-(1H-pyrazol-4-yl)-1,6-naphthyridin-5-yl]-1H-pyrazol-1-yl}cyclobutanecarbonitrile]"
–,–,–,–,0.008,0.048,0.01,0.474,"Cn1cc(-c2cc3ncccc3c(-c3ccn([C@]4(CC#N)C[C@H](C#N)C4)n3)n2)c(N)n1 [Example 140, cis-3-{3-[7-(3-amino-1-methyl-1H-pyrazol-4-yl)-1,6-naphthyridin-5-yl]-1H-pyrazol-1-yl}-3-(cyanomethyl)cyclobutanecarbonitrile]"
–,–,–,–,0.133,5.92,1.23,> 10,"CO[C@H]1C[C@](CC#N)(n2ccc(-c3nc(-c4cnn(CCO)c4)cc4ncccc34)n2)C1 [Example 129, [trans-1-(3-{7-[1-(2-hydroxyethyl)-1H-pyrazol-4-yl]-1,6-naphthyridin-5-yl}-1H-pyrazol-1-yl)-3-methoxycyclobutyl]acetonitrile]"
